Patent publication US20110281802A1, “COMPOSITION FOR TREATMENT AND PREVENTION OF HAIR LOSS AND PREMATURE GRAYING OF HAIR” (Immudiagnostik AG, priority 2007, published 2011)

Legend:
Assay type in all cases: cell-based
[1] = system: human anagen VI hair follicles; assay: Melanogenesis, Fontana Masson staining measured by Image J, assay #1; conditions: for Mean relative darkening of the groups (measured by image J), Mean: 9 days, dark=small index number, light=high index number
Experimental: (§1) Assay #1 Culture HF429: Hair follicles were grown in the wells of a microtiter plate (3 follicles per well) and treated for 9 days with culture medium and test substance as indicated in FIG. 1. Thereafter, elongation, melanogenesis and hair cycle stage were determined.
Fontana Masson staining was performed at the end of the culture period and photos taken of snap frozen sections. The photos were analysed (Image J, public domain, developed at the National Institutes of Health, USA) by measuring the density of two squares, consisting of 150×150 dots, placed over the darkest areas on both sides of the dermal papilla. For Fontana-Masson staining, fixed sections were treated in darkness for 40 minutes with a solution containing 10% silver nitrate (Merck & Co., Inc., Whitehouse Station, N.J., USA; CatNo 1.01512.0100), following by a development in solution containing 5% sodium thiosulphate (Merck & Co., Inc.; CatNo 1.06512.2500) for 1 minute and multiple washings in distilled water for 3 minutes. Counterstaining with 0.5% Neutralrot (Chroma Muenster, Germany, CatNo 2E038). Then dehydration in xylol and covering with Eukitt (O. Kindler GmbH, Freiburg, Germany; CatNo E115).
(§2) All data were analysed by two-tailed unpaired t-test (SPSS analysis software SPSS Inc., Chicago, USA). For determination of elongation, two outliers at top and bottom end of value range were eliminated; with the measurement of melanogenesis one outlier at both, top and bottom range, was eliminated. Results are given as mean value and standard error of measurement (SEM).
Micro-dissected anagen VI hair follicles were treated as above described. At the end of the culture period Fontana Masson staining was performed and photos were taken of the snap frozen sections. The pictures were analysed by measuring the darkness (brightness) of two squares, consisting of 150×150 dots, placed over the darkest areas on both sides of the dermal papilla (dark=small index number, light=high index number). The shading of the different groups was compared to each other and the results were analysed using Student's t-test. The results are shown below in Table 5 and FIG. 7.

[2] = system: human anagen VI hair follicles; assay: Hair shaft elongation of organ-cultured hair follicles, assay #2 (culture HF 441)
Experimental: (§3) Human anagen VI hair follicles were isolated from scalp skin obtained from three different individuals undergoing routine face-lift surgery. All experiments were performed according to Helsinki guidelines.
(§4) Hair follicles were isolated as described (Philpott MP et al, Human hair growth in vitro; J Cell Science 1990, 97(Pt 3):463-71). Isolated HFs were maintained in supplemented, serum-free Williams E medium (Biochrom, Cambridge, UK) supplemented with 2 mMol/L L-glutamine (Invitrogen, Paisley, UK), 10 ng/mL hydrocortisone (Sigma-Aldrich, Taufkirchen, Germany), 10 μg/mL insulin (Sigma-Aldrich), and 1% antibiotic/antimycotic mixture (Gibco, Karlsruhe, Germany). Hair follicles were placed in a 24-well plate with 500 μL medium (day 0) and incubated in a CO2-incubator (5% CO2, 37° C.) over night without any treatment. The next day (day 1) medium was exchanged and test substance was added to each well (5 μL of stock solution was added to 495 μL culture medium). The medium or medium with test substance was changed every 48 hours.
(§5) Hair shaft length measurements were performed every second day on individual hair follicles using a binocular microscope with an eyepiece measuring reticule. The length of the follicle was defined as the distance between the base of the bulb and the cut end of the hair fibre (Philpott MP et al, Human hair growth in vitro; J Cell Science 1990, 97(Pt 3):463-71).
as §2

[3] = system: human anagen VI hair follicles; assay: Hair shaft elongation of organ-cultured hair follicles, assay #1 (culture HF 429); conditions: for Hair growth compared with control (in words): p<0.05
Experimental: as §3, §4, §1, §5, §2

[4] = system: human anagen VI hair follicles; assay: Hair shaft elongation of organ-cultured hair follicles, assay #3 (culture HF 446)
Experimental: as §3, §4
Assay #3 Culture HF 446: Eight hair follicle cultures (3 follicles/well) were treated with various concentration of test substance as described for 2 days, followed by snap freezing and sectioning of two wells. Six wells were treated up to 9 days, then snap frozen and sectioned. The distribution of test substances and concentrations were as indicted in FIG. 3. The parameter measured after two days was proliferation/apoptosis, and the parameters measured after 9 days were elongation, proportion of cells in proliferation/apoptosis, and hair cycle stage
as §5, §2

thymulin
Fontana Masson staining (melanin) compared with control group (in words) ([1]; 10 pg/mL): significantly more staining | Mean relative darkening of the groups (measured by image J), Mean ([1]; 10 pg/mL): 75.73 | Mean relative darkening of the groups (measured by image J), Mean ([1]; 100 pg/mL): 90.48 | Mean elongation in % compared to day 0 ([2]; 10 pg/mL, Day 3): 20.86% | Mean elongation in % compared to day 0 ([2]; 10 pg/mL, Day 5): 34.97% | Mean elongation in % compared to day 0 ([2]; 10 pg/mL, Day 7): 43.26% | Mean elongation in % compared to day 0 ([2]; 10 pg/mL, Day 9): 58.90% | Mean elongation in % compared to day 0 ([2]; 10 pg/mL, Day O): 0% | Mean elongation with thymulin in percent compared to day 0 ([3]; 10 pg/mL, Day 0): 0% | Mean elongation with thymulin in percent compared to day 0 ([3]; 10 pg/mL, Day 1): 13.19% | Mean elongation with thymulin in percent compared to day 0 ([3]; 10 pg/mL, Day 3): 37.58% | Mean elongation with thymulin in percent compared to day 0 ([3]; 10 pg/mL, Day 5): 64.05% | Mean elongation with thymulin in percent compared to day 0 ([3]; 10 pg/mL, Day 7): 75.10% | Mean elongation with thymulin in percent compared to day 0 ([3]; 10 pg/mL, Day 9): 90.98% | Mean elongation with thymulin in percent compared to day 0 ([3]; 100 pg/mL, Day 0): 0% | Mean elongation with thymulin in percent compared to day 0 ([3]; 100 pg/mL, Day 1): 11.33% | Mean elongation with thymulin in percent compared to day 0 ([3]; 100 pg/mL, Day 3): 31.50% | Mean elongation with thymulin in percent compared to day 0 ([3]; 100 pg/mL, Day 5): 53.75% | Mean elongation with thymulin in percent compared to day 0 ([3]; 100 pg/mL, Day 7): 68.76% | Mean elongation with thymulin in percent compared to day 0 ([3]; 100 pg/mL, Day 9): 83.13% | Hair growth compared with control (in words) ([3]; 100 pg/mL): significant lack of hair growth | Mean elongation in % compared to day 0 ([4]; 10 pg/mL, Day 0): 0% | Mean elongation in % compared to day 0 ([4]; 10 pg/mL, Day 1): 7.30% | Mean elongation in % compared to day 0 ([4]; 10 pg/mL, Day 3): 45.35% | Mean elongation in % compared to day 0 ([4]; 10 pg/mL, Day 5): 58.41% | Mean elongation in % compared to day 0 ([4]; 10 pg/mL, Day 7): 67.70% | Mean elongation in % compared to day 0 ([4]; 10 pg/mL, Day 9): 78.70% | Mean elongation in % compared to day 0 ([4]; 100 pg/mL, Day 0): 0% | Mean elongation in % compared to day 0 ([4]; 100 pg/mL, Day 1): 5.86% | Mean elongation in % compared to day 0 ([4]; 100 pg/mL, Day 3): 40.11% | Mean elongation in % compared to day 0 ([4]; 100 pg/mL, Day 5): 62.88% | Mean elongation in % compared to day 0 ([4]; 100 pg/mL, Day 7): 80.67% | Mean elongation in % compared to day 0 ([4]; 100 pg/mL, Day 9): 94.36%

Thymosin beta-4 [TB4]
Mean relative darkening of the groups (measured by image J), Mean ([1]; 100 ng/mL): 101.04 | Mean relative darkening of the groups (measured by image J), Mean ([1]; 1000 ng/mL): 85.52 | Influence on HF melanogenesis (in words) ([1]; quantitative Masson-Fontana histochemistry): did not influence HF melanogenesis | Mean elongation in % compared to day 0 ([2]; 100 ng/mL, Day 3): 19.35% | Mean elongation in % compared to day 0 ([2]; 100 ng/mL, Day 5): 31.66% | Mean elongation in % compared to day 0 ([2]; 100 ng/mL, Day 7): 41.77% | Mean elongation in % compared to day 0 ([2]; 100 ng/mL, Day 9): 49.94% | Mean elongation in % compared to day 0 ([2]; 100 ng/mL, Day O): 0% | Mean elongation in % compared to day 0 ([2]; 1000 ng/mL, Day 3): 21.68% | Mean elongation in % compared to day 0 ([2]; 1000 ng/mL, Day 5): 32.59% | Mean elongation in % compared to day 0 ([2]; 1000 ng/mL, Day 7): 37.48% | Mean elongation in % compared to day 0 ([2]; 1000 ng/mL, Day 9): 43.30% | Mean elongation in % compared to day 0 ([2]; 1000 ng/mL, Day O): 0% | Mean elongation in % compared to day 1 ([3]; 100 ng/mL, Day 0): 0.00% | Mean elongation in % compared to day 1 ([3]; 100 ng/mL, Day 1): 12.26% | Mean elongation in % compared to day 1 ([3]; 100 ng/mL, Day 3): 35.49% | Mean elongation in % compared to day 1 ([3]; 100 ng/mL, Day 5): 49.79% | Mean elongation in % compared to day 1 ([3]; 100 ng/mL, Day 7): 61.36% | Mean elongation in % compared to day 1 ([3]; 100 ng/mL, Day 9): 74.11% | Hair growth compared with control (in words) ([3]; 100 ng/mL): significant lack of hair growth | Mean elongation in % compared to day 1 ([3]; 1000 ng/mL, Day 0): 0.00% | Mean elongation in % compared to day 1 ([3]; 1000 ng/mL, Day 1): 14.20% | Mean elongation in % compared to day 1 ([3]; 1000 ng/mL, Day 3): 39.31% | Mean elongation in % compared to day 1 ([3]; 1000 ng/mL, Day 5): 66.20% | Mean elongation in % compared to day 1 ([3]; 1000 ng/mL, Day 7): 90.23% | Mean elongation in % compared to day 1 ([3]; 1000 ng/mL, Day 9): 103.17% | Mean elongation in % compared to day 0 ([4]; 100 ng/mL, Day 0): 0% | Mean elongation in % compared to day 0 ([4]; 100 ng/mL, Day 1): 5.91% | Mean elongation in % compared to day 0 ([4]; 100 ng/mL, Day 3): 42.55% | Mean elongation in % compared to day 0 ([4]; 100 ng/mL, Day 5): 59.58% | Mean elongation in % compared to day 0 ([4]; 100 ng/mL, Day 7): 73.62% | Mean elongation in % compared to day 0 ([4]; 100 ng/mL, Day 9): 83.13% | Mean elongation in % compared to day 0 ([4]; 1000 ng/mL, Day 0): 0% | Mean elongation in % compared to day 0 ([4]; 1000 ng/mL, Day 1): 8.28% | Mean elongation in % compared to day 0 ([4]; 1000 ng/mL, Day 3): 39.17% | Mean elongation in % compared to day 0 ([4]; 1000 ng/mL, Day 5): 53.52% | Mean elongation in % compared to day 0 ([4]; 1000 ng/mL, Day 7): 65.51% | Mean elongation in % compared to day 0 ([4]; 1000 ng/mL, Day 9): 70.08% | Rate of hair growth compared with control (in words) ([4]; 1000 ng/mL, p<0.05): significantly lowered rate of hair growth
